In the supplement of paper PMC10307832:

Experiments:
Experiment in all cases: relative viability (nuclei count vs DMSO), 5 days (fraction); higher = more cells survive
Lapatinib + Palbociclib = compound: CS(=O)(=O)CCNCc1ccc(-c2ccc3ncnc(Nc4ccc(OCc5cccc(F)c5)c(Cl)c4)c3c2)o1 [Lapatinib] + CC(=O)c1c(C)c2cnc(Nc3ccc(N4CCNCC4)cn3)nc2n(C2CCCC2)c1=O [Palbociclib] (partner 0.5 µM)
Procedure, shortened: (§1)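 Five library-drug doses in √10 steps were combined with a fixed anchor-drug dose, or a single drug was given alone, by pin tool to lung cancer cell lines in 1536-well plates the day after seeding. Nuclei were stained and counted after 5 days. Relative viability is the nuclei count in treated wells over that in vehicle wells, taken as the median of duplicate plates.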

Wnt-C59 + Vorinostat = compound: CC1=NC=CC(=C1)C2=CC=C(C=C2)CC(=O)NC3=CC=C(C=C3)C4=CN=CC=C4 [Wnt-C59] + O=C(CCCCCCC(=O)Nc1ccccc1)NO [Vorinostat] (partner 1 µM)
Procedure, shortened: as §1

Lapatinib + Decitabine = compound: CS(=O)(=O)CCNCc1ccc(-c2ccc3ncnc(Nc4ccc(OCc5cccc(F)c5)c(Cl)c4)c3c2)o1 [Lapatinib] + Nc1ncn([C@H]2C[C@H](O)[C@@H](CO)O2)c(=O)n1 [Decitabine] (partner 2 µM)
Procedure, shortened: as §1

Wnt-C59 + Crizotinib = compound: CC1=NC=CC(=C1)C2=CC=C(C=C2)CC(=O)NC3=CC=C(C=C3)C4=CN=CC=C4 [Wnt-C59] + C[C@@H](Oc1cc(-c2cnn(C3CCNCC3)c2)cnc1N)c1c(Cl)ccc(F)c1Cl [Crizotinib] (partner 1 µM)
Procedure, shortened: as §1

Cell Line	relative viability (Lapatinib + Palbociclib; first compound 0.02 µM)	relative viability (Lapatinib + Palbociclib; first compound 0.06325 µM)	relative viability (Lapatinib + Palbociclib; first compound 0.2 µM)	relative viability (Lapatinib + Palbociclib; first compound 0.6325 µM)	relative viability (Lapatinib + Palbociclib; first compound 2 µM)	relative viability (Wnt-C59 + Vorinostat; first compound 0.001 µM)	relative viability (Wnt-C59 + Vorinostat; first compound 0.01 µM)	relative viability (Wnt-C59 + Vorinostat; first compound 0.03162 µM)	relative viability (Wnt-C59 + Vorinostat; first compound 0.1 µM)	relative viability (Lapatinib + Decitabine; first compound 0.02 µM)	relative viability (Lapatinib + Decitabine; first compound 0.06325 µM)	relative viability (Lapatinib + Decitabine; first compound 0.2 µM)	relative viability (Lapatinib + Decitabine; first compound 0.6325 µM)	relative viability (Lapatinib + Decitabine; first compound 2 µM)	relative viability (Wnt-C59 + Crizotinib; first compound 0.001 µM)	relative viability (Wnt-C59 + Crizotinib; first compound 0.01 µM)	relative viability (Wnt-C59 + Crizotinib; first compound 0.03162 µM)	relative viability (Wnt-C59 + Crizotinib; first compound 0.1 µM)
201T	0.358	0.309	0.339	0.338	0.342	0.979	0.991	1.03	0.983	0.845	0.812	0.813	0.827	0.817	1.01	1.02	1.01	1.03
A549	–	–	–	–	–	–	–	–	–	–	0.224	0.305	0.291	0.133	0.802	0.676	0.752	0.676
A-427	0.544	0.518	0.526	0.524	0.483	0.851	0.878	0.874	0.895	0.561	0.519	0.597	0.614	0.498	0.982	0.798	0.962	0.905
ABC-1	0.71	0.487	–	0.533	0.787	1.05	1.07	1.07	1.18	1.1	0.931	–	1.01	1.02	1.03	1.21	1.11	0.868
BEN	0.455	0.469	0.472	0.432	0.468	0.581	0.523	0.675	0.579	0.413	0.743	0.725	0.748	0.665	0.897	0.84	1.02	0.923
CAL-12T	0.197	0.304	0.319	0.329	0.137	0.808	0.82	0.975	0.805	–	–	–	–	–	0.699	0.654	0.89	0.555
COR-L23	0.248	0.298	0.342	0.297	0.279	0.457	0.452	0.624	0.454	0.516	0.421	0.456	0.417	0.422	0.653	0.567	0.637	0.67
COR-L 105	0.418	0.387	0.352	0.407	0.338	0.991	0.71	0.877	0.857	0.62	0.538	0.586	0.613	0.376	0.879	0.808	0.853	0.76
Calu-6	–	–	–	–	–	–	–	–	–	–	–	–	–	–	0.787	0.779	0.883	0.825
ChaGo-K-1	0.868	0.9	0.939	0.909	0.912	0.751	0.781	0.689	0.774	0.528	0.562	0.542	0.52	0.447	1.08	–	1.21	1.09
EBC-1	–	–	–	–	–	–	–	–	–	–	–	–	–	–	0.191	0.188	0.204	0.224
EKVX	–	0.337	0.265	0.22	0.145	0.805	0.585	0.574	0.557	–	0.326	0.333	0.304	0.138	1.06	1.09	0.879	0.874
EMC-BAC-2	–	0.459	0.524	0.536	0.539	0.421	0.412	0.409	0.751	–	0.864	–	0.945	0.956	0.642	0.649	0.636	0.678
EPLC-272H	–	0.288	0.291	0.299	0.261	0.394	0.561	0.512	0.396	–	0.361	0.352	0.34	0.366	0.955	0.8	0.874	0.53
H3255	0.334	0.291	0.308	0.291	0.283	0.79	0.71	0.95	0.86	–	0.543	0.584	0.422	0.207	0.86	0.959	0.942	0.751
HARA	0.194	0.195	0.202	0.233	0.224	0.729	0.533	0.511	0.481	0.575	0.525	0.522	0.37	0.398	1.04	0.642	1.15	1.06
HCC-15	–	0.68	0.734	0.652	0.584	0.851	0.817	1.05	0.892	–	0.537	0.677	0.64	0.568	0.891	0.82	0.919	0.85
HCC-44	0.995	1.01	0.976	1.05	0.823	1.16	1.02	1.13	1.12	0.838	0.908	0.964	1.02	0.797	0.878	0.78	0.753	0.757
HCC-78	–	0.453	0.49	0.467	0.506	0.439	0.407	0.476	0.484	–	0.58	0.744	0.765	0.735	0.343	0.284	0.303	0.339
HCC-366	–	0.334	0.339	0.356	0.323	0.338	0.2	0.309	0.335	–	0.348	0.405	0.368	0.291	0.45	0.541	0.605	0.472
HCC-827	0.435	0.433	0.461	0.257	0.415	0.901	0.922	1.01	0.77	0.239	0.35	0.348	0.333	0.295	1.01	0.979	0.942	0.975
HOP-62	–	0.44	0.457	0.451	0.432	0.639	0.576	0.508	0.637	–	0.224	0.21	0.203	0.219	0.973	0.916	0.974	0.789
IA-LM	–	–	–	–	–	0.934	0.906	–	0.939	–	–	–	–	–	0.919	0.746	0.632	0.705

Cell Line	relative viability (Lapatinib + Palbociclib; first compound 0.02 µM)	relative viability (Lapatinib + Palbociclib; first compound 0.06325 µM)	relative viability (Lapatinib + Palbociclib; first compound 0.2 µM)	relative viability (Lapatinib + Palbociclib; first compound 0.6325 µM)	relative viability (Lapatinib + Palbociclib; first compound 2 µM)	relative viability (Wnt-C59 + Vorinostat; first compound 0.001 µM)	relative viability (Wnt-C59 + Vorinostat; first compound 0.01 µM)	relative viability (Wnt-C59 + Vorinostat; first compound 0.03162 µM)	relative viability (Wnt-C59 + Vorinostat; first compound 0.1 µM)	relative viability (Lapatinib + Decitabine; first compound 0.02 µM)	relative viability (Lapatinib + Decitabine; first compound 0.06325 µM)	relative viability (Lapatinib + Decitabine; first compound 0.2 µM)	relative viability (Lapatinib + Decitabine; first compound 0.6325 µM)	relative viability (Lapatinib + Decitabine; first compound 2 µM)	relative viability (Wnt-C59 + Crizotinib; first compound 0.001 µM)	relative viability (Wnt-C59 + Crizotinib; first compound 0.01 µM)	relative viability (Wnt-C59 + Crizotinib; first compound 0.03162 µM)	relative viability (Wnt-C59 + Crizotinib; first compound 0.1 µM)
LC-2-ad	–	0.522	0.527	0.501	0.476	0.699	0.714	0.742	0.688	–	0.807	0.715	0.834	0.692	0.45	0.442	0.553	0.279
LCLC-97TM1	–	0.135	0.248	0.19	0.233	0.733	0.765	0.901	0.706	–	0.232	0.222	0.268	0.268	0.292	0.344	0.545	0.283
LCLC-103H	0.445	0.486	0.478	0.533	0.441	0.887	0.743	0.762	0.806	0.764	0.657	0.652	0.775	0.666	1.08	0.977	1	1.02
LK-2	0.634	–	0.832	–	1.01	0.441	0.295	0.3	0.233	0.196	–	0.331	0.363	0.411	0.228	0.238	0.212	0.259
LOU-NH91	0.542	0.525	0.508	0.494	0.57	0.868	0.864	0.886	0.978	0.789	0.709	0.65	0.663	0.652	0.732	0.65	0.738	0.766
LU99A	0.449	0.299	0.385	0.424	0.39	0.486	0.474	0.484	0.442	0.903	0.73	0.859	0.896	0.721	0.577	0.538	0.622	0.531
LXF-289	0.615	0.588	0.588	0.577	0.526	0.72	0.766	0.783	0.801	0.358	0.377	0.354	0.385	0.408	0.822	0.768	0.817	0.78
NCI-H23	–	–	0.488	0.512	0.457	0.499	0.541	0.737	0.59	–	–	0.315	0.353	0.323	0.521	0.463	0.537	0.599
NCI-H322M	0.464	0.432	0.455	0.446	0.434	0.86	0.816	0.746	0.93	0.632	0.552	0.648	0.567	0.555	0.819	0.937	0.877	0.841
NCI-H358	0.16	0.124	0.13	0.132	0.104	0.803	0.589	0.8	0.65	0.205	0.181	0.206	0.162	0.152	0.608	0.525	0.436	0.625
NCI-H522	–	0.749	0.954	1.02	0.777	0.899	0.954	0.759	0.873	–	0.645	0.647	0.683	0.664	–	–	–	–
NCI-H596	–	–	–	–	–	0.601	0.603	0.59	0.76	–	0.979	0.793	1.04	0.957	0.972	1	1.32	0.932
NCI-H1299	–	–	–	–	–	–	–	–	–	–	–	–	–	–	1.02	0.562	0.952	0.953
NCI-H1395	–	0.621	0.581	0.598	0.616	0.724	0.675	0.564	1.1	–	0.719	0.802	0.729	0.701	–	–	–	–
NCI-H1563	–	–	–	–	–	–	–	–	–	–	–	–	–	–	0.812	0.802	0.965	0.797
NCI-H1648	–	0.222	0.294	0.285	0.252	0.421	0.369	0.655	0.364	–	0.389	0.495	0.481	0.33	–	–	–	–
NCI-H1703	–	–	–	–	–	–	–	–	–	–	–	–	–	–	0.988	0.735	0.585	0.64
NCI-H1792	0.618	–	0.614	0.559	0.6	–	–	–	–	–	–	0.555	0.509	0.388	0.914	1.02	1.04	1.06
NCI-H1793	–	0.25	0.258	0.293	0.241	0.626	0.548	0.81	0.74	–	0.404	0.418	0.424	0.44	–	–	–	–
NCI-H2228	0.395	0.606	0.744	0.739	0.54	0.654	0.657	0.587	0.838	–	–	–	–	–	0.509	0.393	0.563	0.466
NCI-H2342	0.504	0.491	0.501	0.553	0.484	0.706	0.747	0.855	0.732	0.706	0.694	0.618	0.691	0.638	–	–	–	–
SW 900	–	0.514	0.554	0.586	0.43	0.475	0.343	0.479	0.488	–	0.392	0.428	0.44	0.425	–	–	–	–
